Measured values taken from the supplement of paper PMC4862054.

Experiments:
Hs578T = conditions: 72 h
In short: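 In this assay, breast cancer cell lines spent 72 h with compound at 5 concentrations in 10-fold steps over a compound-specific 10,000-fold range. The first readout was cell death by CellTox Green fluorescence, and the second was viability by CellTiter-Glo luminescence, each normalised per plate to 0.1 % DMSO and a positive kill control. EC50 came from the dose-response curves, censored at the top concentration.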

HCC1143 = experiment: normalised viability (% of control), CellTiter-Blue; higher = more viable cells (about 100 = DMSO control); conditions: incubation time: 72 h
In short: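 Vehicle (100) and a positive kill control (0) anchored the normalisation of each plate, and Z'-factor was used for quality control. Breast cancer cell lines in 20 µl suspension were incubated 72 h over compound in 5 µl medium in 384-well plates, followed by CellTiter-Blue at 560/590 nm. The value is normalised viability at a single listed concentration of the series.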

SMILES	EC50, CellTiter-Glo (Hs578T)	normalised viability (HCC1143; 10 nM)	normalised viability (HCC1143; 100 nM)	normalised viability (HCC1143; 1 nM)
CC[C@@]1(O)C(=O)OCc2c1cc1n(c2=O)Cc2cc3c(CN(C)C)c(O)ccc3nc2-1 [Topotecan]	5.13 µM	79.7%	–	–
Nc1ccccc1NC(=O)c1ccc(CNc2nccc(-c3cccnc3)n2)cc1 [Mocetinostat]	3.43 µM	–	81.5%	–
C[C@]12O[C@H](C[C@]1(O)CO)n1c3ccccc3c3c4c(c5c6ccccc6n2c5c31)CNC4=O [Lestaurtinib]	0.354 µM	113%	–	–
CO[C@@H](C(=O)N1Cc2[nH]nc(NC(=O)c3ccc(N4CCN(C)CC4)cc3)c2C1)c1ccccc1 [Danusertib]	4.06 µM	–	87.4%	–
CCC/C=C/C=C/C(=O)O[C@H]1/C(=C/C(=O)OC)C[C@H]2C[C@H]([C@@H](C)O)OC(=O)C[C@H](O)C[C@@H]3C[C@H](OC(C)=O)C(C)(C)[C@](O)(C[C@@H]4C/C(=C/C(=O)OC)C[C@H](/C=C/C(C)(C)[C@]1(O)O2)O4)O3 [Bryostatin 1]	0.00141 µM	–	–	81.2%
COc1ccc(-c2cc3c(C)nc(N)nc3n([C@H]3CC[C@H](OCCO)CC3)c2=O)cn1	0.238 µM	–	92.8%	–
O=S(=O)(c1cccc2cnccc12)N1CCCNCC1 [Fasudil]	> 50 µM	–	87.2%	–
